Measurements taken from patent publication US6380244B2, “Nutritional and therapeutic uses of 3-hydroxyalkanoate oligomers” (Metabolix, Inc., priority 1998, dated 2002).

How the values were obtained:
[1] = Single oral bolus of triolide in a fasted dog, blood ketone bodies and glucose (Example 2); format: in vivo, mongrel dog
Description: A mongrel dog (21 kg) was fasted overnight and given an oral bolus of triolide (R,R,R)-4,8,12-trimethyl-1,5,9-trioxadodeca-2,6,10-trione, 10 g) in gelatin. This amount of triolide is equivalent to 5% of the daily caloric requirement. Blood was sampled at 0, 15, 30, 45, and 60 minutes and every half hour thereafter for a total of six hours.
The blood samples were analyzed for glucose via enzymatic assay, and for acetoacetate and 3-hydroxybutyrate via GC-mass spectrometry (GC-MS) assay. As shown by FIG. 1, within 90 minutes, the blood concentrations of 3-hydroxybutyrate and acetoacetate reached 0.3 and 0.05 mM, and the total ketone bodies in the blood were 0.36 mM. After the fourth hour, the total ketone body concentration remained elevated at 0.24 mM. Glucose concentration in the blood dropped from 6.5 mM to 5 mM during the experiment.

[2] = Repeated feeding of meat plus triolide to a fasted dog, blood ketone bodies, glucose, tolerability (Example 3); format: in vivo, mongrel dog
Description: A mongrel dog (25.5 kg) was fasted overnight and fed a mixture of meat (111 g) and triolide ((R,R,R)-4,8,12-trimethyl-1,5,9-trioxadodeca-2,6,10-trione, 23.5 g). This amount of triolide is equivalent to 10% of the daily caloric requirement. Identical amounts of meat and triolide were given at 0, 120, 360 and 540 minutes. Blood was sampled at regular intervals for 12 hours.
The blood samples were analyzed for acetoacetate and 3-hydroxybutyrate. Within 30 minutes, the concentrations of 3-hydroxybutyrate and acetoacetate reached 0.85 and 0.15 mM, respectively. The total ketone bodies in the blood were 1.0 mM. After the third feeding of triolide, total ketone body concentration remained elevated and steady at about 0.6 mM. Glucose concentration in the blood remained within the normal range of 3.1 to 5.9 mM. […] By the next morning, the ketone body concentration in the blood had returned to the normal value of 0.02 mM.

[3] = four feedings of 23.5 g triolide, throughout the experiment
[4] = meat + triolide 23.5 g, within 30 minutes

blood concentration of 3-hydroxybutyrate ([1]; oral bolus 10 g triolide in gelatin (5% of daily caloric requirement), within 90 minutes, GC-MS): 300 µM
total ketone bodies in the blood ([1]; oral bolus 10 g triolide in gelatin, within 90 minutes): 0.36 mM
blood concentration of acetoacetate ([1]; oral bolus 10 g triolide in gelatin, within 90 minutes, GC-MS): 50 µM
total ketone body concentration ([1]; oral bolus 10 g triolide, after the fourth hour, remained elevated): 0.24 mM
Structure (SMILES): C[C@@H]1CC(=O)O[C@H](C)CC(=O)O[C@H](C)CC(=O)O1 [triolide, (R,R,R)-4,8,12-Trimethyl-1,5,9-Trioxadodeca-2,6,10-Trione]
total ketone body concentration ([2]; after the third feeding of triolide, elevated and steady): about 0.6 mM
ketone body concentration in the blood ([2]; by the next morning, returned to the normal value): 0.02 mM
other clinical chemistry profiles [2, 3]: remained normal
signs of distress, unusual behavior, abnormal bodily functions (diarrhea, nausea, vomiting, frequent urination) [2, 3]: no signs of distress
blood concentration of 3-hydroxybutyrate ([2]; meat 111 g + triolide 23.5 g (10% of daily caloric requirement) at 0, 120, 360, 540 min, within 30 minutes): 850 µM
blood concentration of acetoacetate [2, 4]: 150 µM
total ketone bodies in the blood [2, 4]: 1.0 mM
